# Data as given in paper PMC10518257 (Nature Cancer, 2023).
# Values joined by “and” are separate entries in the source; they are usually repeats but may differ in a detail not shown here. Equal values may be shown once. Read-outs that look alike come from different tables or passages of the source.
# Experiments:
# [1] = tested on: ECLC5B cells; experiment: Growth inhibition (alamarBlue, 96 h); type: cell-based, human; details: ECLC5B; for raw viability signal (Source Data Fig. 3b-c): replicates
# [2] = tested on: Ba/F3 cells; experiment: Growth inhibition assay in Ba/F3 cells (CellTiter-Glo, 72 h); type: cell-based
# [3] = tested on: TT cells; experiment: Growth inhibition (alamarBlue, 96 h); type: cell-based, human; details: for raw viability signal (Source Data Fig. 3b-c): replicate sets
# [4] = Animal weight of tumor-bearing mice
# [5] = tested on: Ba/F3-RET^M918T; experiment: Growth inhibition assay in Ba/F3 cells (CellTiter-Glo, 72 h); type: cell-based; details: Mus musculus, BaF3, 72 h, Ba/F3-RET^M918T, CellTiter-Glo, 72 h; read-out: GI50 value (Mean ± SD)
# [6] = tested on: MMNK1 cholangiocytes; experiment: Growth inhibition (alamarBlue, 96 h); type: cell-based, human; details: for raw viability signal (Source Data Fig. 3b-c): MMNK, replicates
# [7] = Homo sapiens, read-out: IC50 for Inhibition of Growth (95% CI), alamarBlue, 96 h
smiles,measurement,setting,value
COc1cc2c(Nc3ccc(Br)cc3F)ncnc2cc1OCC1CCN(C)CC1 [Vandetanib],raw viability signal (Source Data Fig. 3b-c),[1]; 0.01 nM,9731.41 and 6613.39 and 26019.7
same,raw viability signal (Source Data Fig. 3b-c),[1]; 0.1 nM,10719.9 and 7303.21 and 26332.1
same,raw viability signal (Source Data Fig. 3b-c),[1]; 1 nM,7568.32 and 25576
same,raw viability signal (Source Data Fig. 3b-c),[1]; 10 nM,10376.5 and 7240.47 and 24146.6
same,raw viability signal (Source Data Fig. 3b-c),[1]; 100 nM,8370.2 and 5534.52 and 20059.6
same,raw viability signal (Source Data Fig. 3b-c),[1]; 1000 nM,1326.74 and 1175.68 and 3727.83
same,raw viability signal (Source Data Fig. 3b-c),[1]; 10000 nM,1185.45 and 1144.21 and 2595.71
same,IC50,[1]; [7],0.248 µM
same,GI50,"[2]; Ba/F3 (parental), replicate Sets 1-3, read-out: GI50",7.33 µM and 9.12 µM
same,GI50,"[2]; Mus musculus, BaF3, 72 h, Ba/F3, CellTiter-Glo, 72 h, read-out: GI50 value (Mean ± SD)",7.49 µM
same,GI50,"[2]; Mus musculus, BaF3, Ba/F3 (parental), replicate Sets 1-3, read-out: GI50",6.02 µM
same,raw viability signal (Source Data Fig. 3b-c),[3]; 0.01 nM,24130.4 and 28596.3 and 33849.7 and 15452.6
same,raw viability signal (Source Data Fig. 3b-c),[3]; 0.1 nM,23355.5 and 28594.1 and 36565.2
same,raw viability signal (Source Data Fig. 3b-c),[3]; 1 nM,22374.7 and 27607.6 and 35010.1 and 13701.7
same,raw viability signal (Source Data Fig. 3b-c),[3]; 10 nM,16858.1 and 26132.6 and 31759.9 and 13240.5 and 11997.4
same,raw viability signal (Source Data Fig. 3b-c),[3]; 100 nM,9840.2 and 25256.2 and 32238.5 and 11048.8 and 6020.05
same,raw viability signal (Source Data Fig. 3b-c),[3]; 1000 nM,9436.58 and 12629.1 and 19662.7 and 4747.88 and 2242.82
same,raw viability signal (Source Data Fig. 3b-c),[3]; 10000 nM,6954.01 and 10117.3 and 4217.75 and 1470.42
same,IC50,[3]; [7],0.09 µM
same,Animal Weight,"[4]; ECLC5B xenograft, P = 0.01, animals killed early",significant weight loss
same,Animal Weight,"[4]; ECLC5 Xenografts, 100 mg/kg QD, treatment day 7, individual animals, 100 mg/kg",26 g and 24 g and 22 g (3×)
same,Animal Weight,"[4]; ECLC5 Xenografts, 100 mg/kg QD, treatment day 11, individual animals, 100 mg/kg",25 g and 23 g and 22 g (3×)
same,Animal Weight,"[4]; ECLC5 Xenografts, 100 mg/kg QD, treatment day 14, individual animals, 100 mg/kg",24 g and 22 g (2×) and 21 g (2×)
same,Animal Weight,"[4]; ECLC5 Xenografts, 100 mg/kg QD, treatment day 19, individual animals, 100 mg/kg",22 g (2×) and 21 g (3×)
same,Animal Weight,"[4]; ECLC5 Xenografts, 100 mg/kg QD, treatment day 22, individual animals",20 g
same,Animal Weight,"[4]; ECLC5 Xenografts, 100 mg/kg QD, treatment day 25, individual animals",20 g
same,Animal Weight,"[4]; LUAD-0057AS1 PDX, 50 mg per kg QD, P = 0.0015",significant reduction in animal weight
same,Animal Weight,"[4]; LUAD-0057AS1 PDX, 50 mg/kg QD, treatment day 0, individual animals, 50 mg/kg",24 g (3×) and 23 g (3×) and 25 g (2×)
same,Animal Weight,"[4]; LUAD-0057AS1 PDX, 50 mg/kg QD, treatment day 3, individual animals, 50 mg/kg",21 g (6×) and 22 g and 23 g
same,Animal Weight,"[4]; LUAD-0057AS1 PDX, 50 mg/kg QD, treatment day 7, individual animals, 50 mg/kg",21 g (3×) and 23 g and 22 g (3×) and 20 g
same,Animal Weight,"[4]; LUAD-0057AS1 PDX, 50 mg/kg QD, treatment day 10, individual animals, 50 mg/kg",20 g (2×) and 22 g (2×) and 21 g (4×)
same,Animal Weight,"[4]; LUAD-0057AS1 PDX, 50 mg/kg QD, treatment day 14, individual animals, 50 mg/kg",20 g (2×) and 21 g (6×)
same,Animal Weight,"[4]; LUAD-0057AS1 PDX, 50 mg/kg QD, treatment day 19, individual animals, 50 mg/kg",20 g (4×) and 19 g (2×) and 21 g (2×)
same,Animal Weight,"[4]; LUAD-0057AS1 PDX, 50 mg/kg QD, treatment day 23, individual animals, 50 mg/kg",19 g and 20 g
same,Animal Weight,"[4]; NIH-3T3-CCDC6::RET xenografts, 100 mg/kg QD, day 0, 100 mg/kg",22 g and 26 g and 24 g and 21 g and 20 g
same,Animal Weight,"[4]; NIH-3T3-CCDC6::RET xenografts, 100 mg/kg QD, day 2, 100 mg/kg",22 g and 23 g and 21 g and 19 g
same,Animal Weight,"[4]; NIH-3T3-CCDC6::RET xenografts, 100 mg/kg QD, day 5, 100 mg/kg",22 g and 26 g and 24 g and 20 g
same,Animal Weight,"[4]; NIH-3T3-CCDC6::RET xenografts, 100 mg/kg QD, day 8, 100 mg/kg",22 g and 25 g and 23 g and 21 g and 19 g
same,GI50,[5],0.0399 ± 0.0152 µM
same,IC50,"[6]; Homo sapiens, read-out: IC50 for Inhibition of Growth (95% CI), MMNK1, alamarBlue, 96 h",1.91 µM
same,raw viability signal (Source Data Fig. 3b-c),[6]; 0.01 nM,15966.6 and 15969.8
same,raw viability signal (Source Data Fig. 3b-c),[6]; 0.1 nM,15836.6
same,raw viability signal (Source Data Fig. 3b-c),[6]; 1 nM,15572.3
same,raw viability signal (Source Data Fig. 3b-c),[6]; 10 nM,14924.4 and 14679.1
same,raw viability signal (Source Data Fig. 3b-c),[6]; 100 nM,14912.5 and 14740.1
same,raw viability signal (Source Data Fig. 3b-c),[6]; 1000 nM,12405.8
same,raw viability signal (Source Data Fig. 3b-c),[6]; 10000 nM,1136.86 and 1108.37
